Experimental data from ChEMBL document CHEMBL5113530, “Butyrylation Meets Adipogenesis-Probed by a p300-Catalyzed Acylation-Specific Small Molecule Inhibitor: Implication in Anti-obesity Therapy” (J Med Chem, 2022).
The source made the active and inactive calls. The rule behind the calls is not given here.

Tests used:
[1] = Toxicity in male Sprague-Dawley rat assessed as effect on body weight at 250 mg/kg, po administered as single dose measured on day 7 (reference value: 217.38 +/- 11.38 g); assay type: organism-based; conditions: in vivo, 168 h, time 7 day
[2] = Toxicity in male Sprague-Dawley rat assessed as average water intake measured per day at 250 mg/kg, po administered as single dose measured on day 7 (Rvb =30 ml/day); assay type: organism-based; conditions: in vivo, 168 h, time 7 day
[3] = Toxicity in female Sprague-Dawley rat assessed as average water intake measured per day at 500 mg/kg, po administered as single dose measured on day 1 (Rvb =25 ml/day); assay type: organism-based; conditions: in vivo, 24 h, time 1 day
[4] = Toxicity in female Sprague-Dawley rat assessed as effect on body weight at 250 mg/kg, po administered as single dose measured on day 7 (Rvb =169.81 +/- 6.57 g); assay type: organism-based; conditions: in vivo, 168 h, time 7 day
3T3-L1 [5] = experiment: Anti-adipogenic activity against mouse 3T3-L1 cells assessed as downregulation of ACSS2 mRNA expression at 25 uM measured after 7 days by qRT-PCR analysis; assay type: functional, cell-based; conditions: time 7.0 day
[6] = Toxicity in female Sprague-Dawley rat assessed as effect on body weight at 500 mg/kg, po administered as single dose measured on day 1 (Rvb =152.21 +/- 6.58 g); assay type: organism-based; conditions: in vivo, 24 h, time 1 day
[7] = Toxicity in male Sprague-Dawley rat assessed as average water intake measured per day at 250 mg/kg, po administered as single dose measured on day 14 (Rvb =34 ml/day); assay type: organism-based; conditions: in vivo, 336 h, time 14 day
3T3-L1 [8] = experiment: Anti-adipogenic activity against mouse 3T3-L1 cells assessed as downregulation of LEP mRNA expression at 25 uM measured after 7 days by qRT-PCR analysis; assay type: functional, cell-based; conditions: time 7.0 day
[9] = Toxicity in female Sprague-Dawley rat assessed as effect on body weight at 500 mg/kg, po administered as single dose measured on day 7 (Rvb =169.81 +/- 6.57 g); assay type: organism-based; conditions: in vivo, 168 h, time 7 day
[10] = Mutagenicity in Salmonella typhimurium TA98 assessed as number of revertants measured per plate at 10 to 1000 incubated for 48 hrs in absence of rat liver S9 fraction by plate incorporation assay; assay type: toxicity; conditions: salmonella enterica subsp. enterica serovar typhimurium, s9, 48 h, dose 10-1000 µg
Mus musculus [11] = experiment: Anti-obesity activity in C57BL6/J mouse model of high fat diet-induced obesity assessed as inhibition of H4K5 butyrylation level in liver at 50 mg/kg by DAPI staining based immunofluorescence microscopic analysis; assay type: functional, organism-based
[12] = Toxicity in female Sprague-Dawley rat assessed as average water intake measured per day at 1000 mg/kg, po administered as single dose measured on day 14 (Rvb =26 ml/day); assay type: organism-based; conditions: in vivo, 336 h, time 14 day
[13] = Toxicity in male Sprague-Dawley rat assessed as average water intake measured per day at 500 mg/kg, po administered as single dose measured on day 1 (Rvb =32 ml/day); assay type: organism-based; conditions: in vivo, 24 h, time 1 day
[14] = Toxicity in female Sprague-Dawley rat assessed as average food intake at 250 mg/kg, po administered as single dose measured on day 14 (Rvb =15.95 g/day); assay type: organism-based; conditions: in vivo, 336 h, time 14 day
[15] = Toxicity in female Sprague-Dawley rat assessed as average food intake at 1000 mg/kg, po administered as single dose measured on day 1 (Rvb =17.84 g/day); assay type: organism-based; conditions: in vivo, 24 h, time 1 day
[16] = Mutagenicity in Salmonella typhimurium TA100 assessed as number of revertants measured per plate at 10 to 1000 incubated for 48 hrs in absence of rat liver S9 fraction by plate incorporation assay; assay type: toxicity; conditions: salmonella enterica subsp. enterica serovar typhimurium, s9, 48 h, dose 10-1000 µg
[17] = target: Histone acetyltransferase p300 (Homo sapiens) (UniProt Q09472); experiment: Inhibition of recombinant full length His-tagged EP300 catalyzed butyrylation (unknown origin) expressed in baculovirus infected Sf21insect cells using Histone H3 as substrate at 25 uM preincubated with compound for 10 mins followed by butyryl-CoA addition and measured after 10 mins by Western blot analysis; conditions: Sf21, time 20.0 min
3T3-L1 [18] = experiment: Anti-adipogenic activity against mouse 3T3-L1 cells assessed as downregulation of FASN mRNA expression at 25 uM measured after 7 days by qRT-PCR analysis; assay type: functional, cell-based; conditions: time 7.0 day
Mus musculus [19] = experiment: Anti-obesity activity in db/db mouse assessed as inhibition of Adipoq-gene expression at 50 mg/kg, po qd administered for 30 days by qRT-PCR analysis; assay type: functional, organism-based; conditions: time 30.0 day
[20] = Toxicity in male Sprague-Dawley rat assessed as effect on body weight at 1000 mg/kg, po administered as single dose measured on day 1 (reference value: 174.75 +/- 7.61 g); assay type: organism-based; conditions: in vivo, 24 h, time 1 day
[21] = Toxicity in female Sprague-Dawley rat assessed as average water intake measured per day at 250 mg/kg, po administered as single dose measured on day 14 (Rvb =26 ml/day); assay type: organism-based; conditions: in vivo, 336 h, time 14 day
[22] = Toxicity in female Sprague-Dawley rat assessed as effect on body weight at 500 mg/kg, po administered as single dose measured on day 14 (Rvb =171.5 +/- 6.65 g); assay type: organism-based; conditions: in vivo, 336 h, time 14 day
[23] = Toxicity in female Sprague-Dawley rat assessed as average food intake at 1000 mg/kg, po administered as single dose measured on day 14 (Rvb =15.95 g/day); assay type: organism-based; conditions: in vivo, 336 h, time 14 day
[24] = Toxicity in male Sprague-Dawley rat assessed as average food intake at 250 mg/kg, po administered as single dose measured on day 14 (Rvb =21.24 g/day); assay type: organism-based; conditions: in vivo, 336 h, time 14 day
[25] = Toxicity in female Sprague-Dawley rat assessed as average food intake at 250 mg/kg, po administered as single dose measured on day 7 (Rvb =15.65 g/day); assay type: organism-based; conditions: in vivo, 168 h, time 7 day
[26] = Mutagenicity in Salmonella typhimurium TA102 assessed as number of revertants measured per plate at 10 to 1000 incubated for 48 hrs in absence of rat liver S9 fraction by plate incorporation assay; assay type: toxicity; conditions: salmonella enterica subsp. enterica serovar typhimurium, s9, 48 h, dose 10-1000 µg
[27] = Toxicity in male Sprague-Dawley rat assessed as average food intake at 500 mg/kg, po administered as single dose measured on day 7 (Rvb =20.24 g/day); assay type: organism-based; conditions: in vivo, 168 h, time 7 day
[28] = system: Histone acetyltransferase p300 (Homo sapiens), Q09472 [C1438A]; experiment: Inhibition of […] His-tagged EP300 C1438A mutant catalytic domain catalyzed acetylation (unknown origin) expressed in Escherichia coli BL21 (DE3) using Histone H3 as substrate at 25 uM preincubated with compound for 10 mins followed by acetyl-CoA addition and measured after 10 mins by Western blot analysis; conditions: time 20.0 min
3T3-L1 [29] = experiment: Inhibition of H3K5 butyrylation in mouse 3T3-L1 cells by Immunoblotting analysis; assay type: functional, cell-based
[30] = Toxicity in male Sprague-Dawley rat assessed as effect on body weight at 500 mg/kg, po administered as single dose measured on day 1 (reference value: 174.75 +/- 7.61 g); assay type: organism-based; conditions: in vivo, 24 h, time 1 day

Chain of Histone acetyltransferase p300 (Homo sapiens), Q09472 [C1438A] (Q09472 whole entry C1438A, the tested form may be a part): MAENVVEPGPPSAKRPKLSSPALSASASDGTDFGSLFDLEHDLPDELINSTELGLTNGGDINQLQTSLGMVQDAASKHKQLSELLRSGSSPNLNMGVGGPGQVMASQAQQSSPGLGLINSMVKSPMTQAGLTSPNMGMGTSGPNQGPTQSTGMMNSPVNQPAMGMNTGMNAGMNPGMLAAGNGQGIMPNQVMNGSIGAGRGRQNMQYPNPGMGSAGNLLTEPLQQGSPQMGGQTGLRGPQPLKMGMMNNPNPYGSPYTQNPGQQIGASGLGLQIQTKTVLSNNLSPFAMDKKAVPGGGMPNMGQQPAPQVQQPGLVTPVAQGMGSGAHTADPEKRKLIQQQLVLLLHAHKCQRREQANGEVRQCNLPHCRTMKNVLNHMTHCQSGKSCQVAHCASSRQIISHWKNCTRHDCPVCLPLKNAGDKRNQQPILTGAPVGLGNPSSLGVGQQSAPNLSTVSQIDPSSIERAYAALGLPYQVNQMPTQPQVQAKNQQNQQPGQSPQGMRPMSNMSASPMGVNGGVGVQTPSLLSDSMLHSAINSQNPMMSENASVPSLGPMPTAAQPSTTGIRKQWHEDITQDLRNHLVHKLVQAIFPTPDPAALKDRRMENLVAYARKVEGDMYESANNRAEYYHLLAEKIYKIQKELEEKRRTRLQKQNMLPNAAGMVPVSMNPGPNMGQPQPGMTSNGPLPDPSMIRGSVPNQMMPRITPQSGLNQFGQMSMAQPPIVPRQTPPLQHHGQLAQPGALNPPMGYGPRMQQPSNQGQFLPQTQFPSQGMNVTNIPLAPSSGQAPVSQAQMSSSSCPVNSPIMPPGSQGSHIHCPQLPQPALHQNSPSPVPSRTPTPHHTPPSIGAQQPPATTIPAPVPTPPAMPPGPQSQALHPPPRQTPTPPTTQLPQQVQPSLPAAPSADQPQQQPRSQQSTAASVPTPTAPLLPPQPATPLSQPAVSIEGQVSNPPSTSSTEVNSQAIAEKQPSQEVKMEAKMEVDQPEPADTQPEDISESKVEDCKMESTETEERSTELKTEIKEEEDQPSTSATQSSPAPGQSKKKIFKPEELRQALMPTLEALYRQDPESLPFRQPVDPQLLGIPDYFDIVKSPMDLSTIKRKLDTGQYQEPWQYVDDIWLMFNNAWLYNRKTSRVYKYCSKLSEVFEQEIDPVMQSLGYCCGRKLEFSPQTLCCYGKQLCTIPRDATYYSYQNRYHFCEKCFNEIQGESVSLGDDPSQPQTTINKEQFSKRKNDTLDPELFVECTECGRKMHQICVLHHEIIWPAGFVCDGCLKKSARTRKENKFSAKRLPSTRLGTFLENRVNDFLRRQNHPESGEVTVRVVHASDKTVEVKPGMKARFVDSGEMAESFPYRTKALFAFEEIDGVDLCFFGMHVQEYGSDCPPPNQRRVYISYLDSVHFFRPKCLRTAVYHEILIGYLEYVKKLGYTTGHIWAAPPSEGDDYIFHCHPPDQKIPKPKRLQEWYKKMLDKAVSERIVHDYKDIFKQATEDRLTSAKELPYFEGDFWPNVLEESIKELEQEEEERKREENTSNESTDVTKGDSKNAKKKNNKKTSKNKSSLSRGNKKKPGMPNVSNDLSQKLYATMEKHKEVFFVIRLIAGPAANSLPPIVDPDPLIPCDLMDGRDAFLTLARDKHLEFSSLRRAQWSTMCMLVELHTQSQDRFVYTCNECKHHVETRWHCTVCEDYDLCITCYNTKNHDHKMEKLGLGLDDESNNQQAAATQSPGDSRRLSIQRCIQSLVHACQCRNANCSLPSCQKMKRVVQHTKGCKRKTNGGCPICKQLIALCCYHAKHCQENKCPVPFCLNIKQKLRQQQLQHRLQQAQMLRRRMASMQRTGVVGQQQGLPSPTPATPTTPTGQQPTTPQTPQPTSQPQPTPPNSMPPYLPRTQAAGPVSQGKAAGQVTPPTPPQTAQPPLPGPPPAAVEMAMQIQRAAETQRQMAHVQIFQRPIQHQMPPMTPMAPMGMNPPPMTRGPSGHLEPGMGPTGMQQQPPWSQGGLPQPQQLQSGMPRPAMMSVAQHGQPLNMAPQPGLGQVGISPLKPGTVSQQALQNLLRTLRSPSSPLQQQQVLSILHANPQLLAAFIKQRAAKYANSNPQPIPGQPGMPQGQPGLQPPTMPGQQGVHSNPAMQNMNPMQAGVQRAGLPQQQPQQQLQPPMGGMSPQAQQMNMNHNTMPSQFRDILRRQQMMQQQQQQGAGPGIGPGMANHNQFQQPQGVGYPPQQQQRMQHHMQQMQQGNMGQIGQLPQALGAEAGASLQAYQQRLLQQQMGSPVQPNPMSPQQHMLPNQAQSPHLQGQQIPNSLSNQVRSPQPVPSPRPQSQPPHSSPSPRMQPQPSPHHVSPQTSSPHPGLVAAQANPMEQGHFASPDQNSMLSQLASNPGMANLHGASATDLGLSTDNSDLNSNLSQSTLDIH
Chain of Histone acetyltransferase p300 (Homo sapiens) (Q09472 whole entry): as the sequence (Q09472 whole entry C1438A, the tested form may be a part) above, with A1438C counted along it

inhibition [17]: Active
inhibition [28]: Active
SMILES: COc1ccc(C(=O)C2=C3OC(C)(C)[C@@H](CC=C(C)C)C[C@@]34C[C@@H](CC=C(C)C)C(C)(C)[C@](CC=C(C)C)(C2=O)C4=O)cc1OC
Activity [1]: 216.62 g
Activity [2]: 27 mL
Activity [3]: 25 mL
Activity [4]: 174.54 g
Activity (3T3-L1 [5]): Active
Activity [6]: 153.32 g
Activity [7]: 34 mL
Activity (3T3-L1 [8]): Active
Activity [9]: 176.55 g
Activity [10]: Non-Toxic
Activity (Mus musculus [11]): Active
Activity [12]: 32 mL
Activity [13]: 36 mL
Activity [14]: 16.65 g/day
Activity [15]: 18.17 g/day
Activity [16]: Non-Toxic
Activity (3T3-L1 [18]): Active
Activity (Mus musculus [19]): Active
Activity [20]: 176.24 g
Activity [21]: 24 mL
Activity [22]: 175.8 g
Activity [23]: 16.97 g/day
Activity [24]: 22.62 g/day
Activity [25]: 16.32 g/day
Activity [26]: Non-Toxic
Activity [27]: 21.14 g/day
inhibition (3T3-L1 [29]): Active
Activity [30]: 176.3 g
